From patent US8859508B2, “Application of 5-methyl-1,3-benzenediol or derivatives thereof in the preparation of medicines and functional foods for treatment or prevention of depression” (Kunming Institute of Botany, Chinese Academy of Sciences, priority 2007, dated 2014)
“Also recorded” adds a separate entry of the source.

Experiments:
DD model mice = test: FST in constant darkness (DD) model mice; format: in vivo, mouse; conditions: for Immobility time (s) (mean ± SEM): oral once a day for 1 week
Method: Kunming mice (Certificate Number: A4CXK(Chuan)2003-16) from the Institute of Experimental Animals, People's Hospital of Sichuan Province, were used. They were 3-4 weeks old at the beginning of the experiments and weighed 25-30 g. ORG was prepared as described in Example 1. Animals were divided into experimental groups with different doses, vehicle control groups, and an imipramine group (Sigma, Batch No. 106k1588) as positive control.
DD model in mice: Mice were kept under 24 h continuous dark conditions. The replacement of padding, addition of food and water, and other operations were undertaken in the condition that the intensity of red light was less than 1.0 lux. The period of this condition lasted for 28 days. In the last week, ORG was administered orally once a day for 1 week. The FST and TST were carried out 30 min after the last administration. Methods and data analysis were as described above.

serum corticosterone = test: Serum corticosterone level (radioimmunoassay), non-stressed and elevated platform stressed rats; format: in vivo, rat
Kunming mice [1] = test: Acute toxicity test of ORG in mice; format: in vivo; conditions: mice, 1750 mg/kg oral
Method: (§1) Kunming mice (Certificate Number: A4CXK(Chuan)2003-16) from the Institute of Experimental Animals, People's Hospital of Sichuan Province, were used. They were 3-4 weeks old and at the beginning of the experiment and weighed 25-30 g. ORG was prepared as described in Example 1. ORG (1750 mg) was dissolved in 10 ml NS to give a concentration of 175 mg/ml. Mice were divided into two groups, the ORG group for evaluation was given ORG and a group was treated with NS for vehicle control. ORG and NS were given to each group orally at a volume of 0.1 ml/10 g.

[2] = Acute toxicity test of ORG in mice; format: in vivo; conditions: mouse, in vivo, 1750 mg/kg; acute toxicity test, Kunming mice, oral; read-out: median toxic dose (TD50)
Method: as §1

Kunming mice [3] = test: Forced swim test (FST) in mice

## Cc1cc(O)cc(OC2OC(CO)C(O)C(O)C2O)c1 [ORG, orcinol-1-O-β-D-glucopyranoside]
DD model mice; DD mice
  therapeutic index = TD50÷ED50: > 1182
DD model mice; DD mice, 2.5 mg/kg
  Immobility time (s) (mean ± SEM): 174.27 ± 11.89 s
DD model mice; DD mice, 5 mg/kg
  Immobility time (s) (mean ± SEM): 161.70 ± 14.89 s
DD model mice; DD mice, 10 mg/kg
  Immobility time (s) (mean ± SEM): 151.86 ± 8.89 s
DD model mice; DD mice, 40 mg/kg
  Immobility time (s) (mean ± SEM): 156.60 ± 13.86 s
DD model mice; DD mice, test 30 min after last dose, 1.25 mg/kg
  Immobility time (s) (mean ± SEM): 180.27 ± 10.36 s
DD model mice; DD model mice, ORG oral
  dose of the best efficacy: 10 mg/kg
DD model mice; Mus musculus, DD model mice, ORG oral
  ED50: ~1.48 mg/kg
Serum corticosterone; non-stress rats, i.p., 3.5 mg/kg
  Concentration of serum corticosterone (ng/ml) (mean ± SEM): 166.06 ± 41.90 ng/mL
Serum corticosterone; non-stress rats, i.p., 14 mg/kg
  Concentration of serum corticosterone (ng/ml) (mean ± SEM): 70.04 ± 14.75 ng/mL
Serum corticosterone; non-stress rats, i.p., 28 mg/kg
  Concentration of serum corticosterone (ng/ml) (mean ± SEM): 63.13 ± 22.21 ng/mL
Serum corticosterone; non-stress rats, i.p., blood 1 h after injection, 0.875 mg/kg
  Concentration of serum corticosterone (ng/ml) (mean ± SEM): 209.02 ± 52.77 ng/mL
Serum corticosterone; stress rats (elevated platform 30 min, 1 h after i.p. injection), 0.875 mg/kg
  Concentration of serum corticosterone (ng/ml) (mean ± SEM): 349.85 ± 61.75 ng/mL
Serum corticosterone; stress rats, i.p., 3.5 mg/kg
  Concentration of serum corticosterone (ng/ml) (mean ± SEM): 263.63 ± 49.14 ng/mL
Serum corticosterone; stress rats, i.p., 14 mg/kg
  Concentration of serum corticosterone (ng/ml) (mean ± SEM): 237.63 ± 32.45 ng/mL
Serum corticosterone; stress rats, i.p., 28 mg/kg
  Concentration of serum corticosterone (ng/ml) (mean ± SEM): 137.41 ± 26.84 ng/mL
Kunming mice [1]; 14 days
  acute toxicity: survival: All mice survived
  acute toxicity: weight gain: the weight gain was normal
Kunming mice [1]; observed for 14 days, 1750 mg/kg
  acute toxicity: appearance, behavior, mental status, appetite, hair, color, breathing (ethological investigation): did not find abnormalities; also recorded: nothing abnormal was found
Kunming mice [1]; sacrificed on day 14
  acute toxicity: pathological section of visceral organs: no evident abnormalities
[2]
  TD50: > 1750 mg/kg
Kunming mice [3]; FST mice, ORG i.g. 24 h and 5 h before test
  dose of the best efficacy: 3 mg/kg
Kunming mice [3]; FST mice, i.g. 24 h and 5 h before test, 0.093 mg/kg
  Immobility time (s) (mean ± SEM): 169.35 ± 4.32 s
Kunming mice [3]; FST mice, i.g., 0.186 mg/kg
  Immobility time (s) (mean ± SEM): 155.30 ± 9.19 s
Kunming mice [3]; FST mice, i.g., 0.3725 mg/kg
  Immobility time (s) (mean ± SEM): 137.57 ± 6.41 s
Kunming mice [3]; FST mice, i.g., 0.75 mg/kg
  Immobility time (s) (mean ± SEM): 139.45 ± 7.04 s
Kunming mice [3]; FST mice, i.g., 1.5 mg/kg
  Immobility time (s) (mean ± SEM): 127.23 ± 6.63 s
Kunming mice [3]; FST mice, i.g., 3 mg/kg
  Immobility time (s) (mean ± SEM): 114.41 ± 6.23 s
Kunming mice [3]; FST mice, i.g., 6 mg/kg
  Immobility time (s) (mean ± SEM): 129.76 ± 5.99 s
Kunming mice [3]; FST mice, i.g., 12 mg/kg
  Immobility time (s) (mean ± SEM): 122.71 ± 5.56 s
Kunming mice [3]; FST mice, i.g., 24 mg/kg
  Immobility time (s) (mean ± SEM): 121.57 ± 6.13 s
Kunming mice [3]; FST mice, i.g., 48 mg/kg
  Immobility time (s) (mean ± SEM): 135.36 ± 4.60 s
Kunming mice [3]; FST mice, i.g., 96 mg/kg
  Immobility time (s) (mean ± SEM): 145.34 ± 5.39 s
Kunming mice [3]; FST mice, oral 3 mg/kg twice in 24 h, recorded 5 h after last treatment (Table 7)
  Immobility (% NS) (mean ± SEM): 64.03 ± 7.20 % NS
Kunming mice [3]; FST mice, oral 3 mg/kg twice, 19 h apart
  onset of antidepressant effect after the second administration: 2.5 h
Kunming mice [3]; FST mice, oral 3 mg/kg twice, 19 h apart, time after second administration
  maintenance of antidepressant effect: at least 72 h
Kunming mice [3]; FST mice, oral 3 mg/kg, 1 administration in 24 h, recorded 5 h after last treatment
  Immobility (% NS) (mean ± SEM): 83.57 ± 6.66 % NS
Kunming mice [3]; FST mice, oral 3 mg/kg, 2 administrations in 24 h, recorded 5 h after last treatment (Table 6)
  Immobility (% NS) (mean ± SEM): 64.98 ± 5.96 % NS
Kunming mice [3]; FST mice, oral 3 mg/kg, 3 administrations in 24 h, recorded 5 h after last treatment
  Immobility (% NS) (mean ± SEM): 65.65 ± 9.67 % NS
Kunming mice [3]; FST mice, oral 3 mg/kg, 4 administrations in 24 h, recorded 5 h after last treatment
  Immobility (% NS) (mean ± SEM): 89.81 ± 6.50 % NS
Kunming mice [3]; FST mice, oral 3 mg/kg, 5 administrations in 24 h, recorded 5 h after last treatment
  Immobility (% NS) (mean ± SEM): 91.26 ± 5.93 % NS
Kunming mice [3]; FST mice, oral 6 mg/kg once in 24 h, recorded 5 h after treatment (Table 7)
  Immobility (% NS) (mean ± SEM): 80.70 ± 4.64 % NS
Kunming mice [3]; FST mice, oral, dose 6 mg/kg (3 mg/kg twice, 19 h apart), 2 weeks after last administration
  Immobility (% NS) (mean ± SEM): 99.54 ± 5.54 % NS
Kunming mice [3]; FST mice, oral, dose 6 mg/kg (3 mg/kg twice, 19 h apart), 2.5 h after last administration
  Immobility (% NS) (mean ± SEM): 73.63 ± 4.21 % NS
Kunming mice [3]; FST mice, oral, dose 6 mg/kg (3 mg/kg twice, 19 h apart), 5 h after last administration
  Immobility (% NS) (mean ± SEM): 71.92 ± 6.05 % NS
Kunming mice [3]; FST mice, oral, dose 6 mg/kg (3 mg/kg twice, 19 h apart), 24 h after last administration
  Immobility (% NS) (mean ± SEM): 62.83 ± 6.59 % NS
Kunming mice [3]; FST mice, oral, dose 6 mg/kg (3 mg/kg twice, 19 h apart), 72 h after last administration
  Immobility (% NS) (mean ± SEM): 77.33 ± 6.07 % NS
Kunming mice [3]; Mus musculus
  ED50: ~0.22 mg/kg
Kunming mice [3]; mice, FST
  therapeutic index (TI) = TD50÷ED50: > 7955
